In PubChem BioAssay AID743236 (The Scripps Research Institute Molecular Screening Center, 2013):
The source made the active and inactive calls. How the calls were made is not given here.

System: Ga16-expressing cells, calcium fluorescence, agonist counterscreen
Assay: Ga16 cell calcium activation, concentration series – fluorescence, dose response, counter-screen for TAAR1 antagonist project, late-stage follow-up (AID 743236)

SMILES	EC50
Cc1cccc(C(C#N)c2nc3ccccc3nc2C(F)(F)F)c1 (centres undefined)	> 29.9 µM (inactive)
CCCCC(=O)Nc1ccc(C(=O)Nc2ccc(S(=O)(=O)N3CCCC3)cc2)cc1	> 29.9 µM (inactive)
COc1cccc(-c2nn(-c3ccccc3)cc2C(=O)Nc2nccs2)c1	> 29.9 µM (inactive)
Cc1ccc(CSCC(=O)Nc2cc(S(=O)(=O)N3CCOCC3)ccc2OCC(F)(F)F)cc1	> 29.9 µM (inactive)
Cc1nn(Cc2c(F)c(F)c(F)c(F)c2F)c(C)c1NC(=O)c1ccc(COc2ccccc2Cl)cc1	> 29.9 µM (inactive)
CC(=O)c1ccc(NC(=O)c2ccc(COc3ccccc3[N+](=O)[O-])o2)cc1	> 29.9 µM (inactive)
O=C(NCCn1cc(SCc2ccccc2F)c2ccccc21)c1c(F)cccc1F	> 29.9 µM (inactive)
COc1cc(NC(=O)c2cc3ccccc3o2)c(OC)cc1Cl	> 29.9 µM (inactive)
Cc1coc(NC(=O)CSc2nc(-c3ccc(Cl)cc3)cc(C(F)(F)F)c2C#N)n1	> 29.9 µM (inactive)
